Structures can show the parent of a compound that is named as a salt. Values belong to the molecule of their own block, whether it stands above or below them.
What was measured:
[1] = DSC analysis of crystalline phase; format: physicochemical; details: DSC endotherm
Description: DSC spectra. TA Instrument, DSC Q10.
DSC spectra were recorded on a TA DSC Q10 instrument within a temperature range of −10° C. to 300° C. or 400° C. and with 10° C. increments.

[2] = XRPD analysis of crystallinity; format: physicochemical; details: powder, ambient
Description: X-ray powder diffraction (XRPD) analysis is performed on a Brüker—AXS D8 Advance diffractometer, using a copper anti-cathode, a mono-crystalline silicon sample holder and a position sensitive detector. Instrument operating conditions for X-rays pattern acquisition are described in Table 2.
The powder sample is dispersed on the silicon sample holder in a way to avoid preferred orientation (not randomly oriented crystals) and to ensure planarity of the specimen surface.

[3] = salt formation results (physical form); format: physicochemical
Description: The hydrochloride, hydrobromide, acetate, tartrate, fumarate, malate, oxalate and sulphate salts of N-(3-(4-(3-(diisobutylamino)propyl)piperazin-1-yl)propyl)-1H-benzo[d]imidazol-2-amine were prepared according to procedures similar to those described in the previous examples or standard salt formation methods well known in the art.

[4] = sample left standing open to the air (hygroscopicity, stability); format: physicochemical; details: listed as chloride salt
Text: Both sulphate salts precipitated as solids. They were found stable when left open to the air. In contrast to the chloride salt, no hygroscopicity issue was observed.

[5] = water solubility; format: physicochemical
[6] = test system: APP metabolism in SH-5Y5Y cells (human neuroblastoma cell line overexpressing wild type human APP); experiment: In vitro APP metabolism assay; format: cell-based; details: 0.3, 1, 3 and 10 μM, 24 h
Description: In Vitro APP Metabolism Assay
This assay was performed using SH-5Y5Y cells (human neuroblastoma cell line overexpressing wild type human APP) which were treated for 24 h with the sulphate salt of example 2. This test was carried out at four different compound concentrations of 0.3, 1, 3 and 10 μM. Quantification of different metabolites was achieved by western-blot analysis. CTFa, CTFβ and AICD were analysed using anti-actin ((I-19) (SC-1616 Santa Cruz Biotechnology; 1:1000 from 200 μg/ml stock) as an internal control and anti-C term APP antibody (1:250000 in washing buffer). Protein concentrations were determined by the BCA Protein Assay Kit (Thermo Scientific). Samples (20 μg total protein) were separated by 16% SDS-PAGE according to the molecular weight of each protein, and transferred to nitrocellulose membranes.

[7] = test system: SH-5Y5Y cell line; experiment: cytotoxicity CC50; format: cell-based, human; details: concentration at which 50% of plated cells remain alive
Description: In addition, it is remarked that no cytotoxicity was found for this sulphate salt, its CC50 on SH-5Y5Y cell line was found greater than 30 μM. CC50 is defined herein as the concentration at which 50% of plated cells remain alive.

[8] = test system: APP metabolism; experiment: In vivo APP metabolism assay, acute treatment 24 h p.o.; design: species or system C57Bl6 female mice
Description: In Vivo APP Metabolism Assay
(§1) In vivo experiments were carried out on 4-month old C57Bl6 female mice or 2-month old Sprague Dawley rats.
Acute treatment: 24 h p.o.
C57Bl6 female mice were treated per os (gavage) with vehicle or compound (example 2) at 0.25, 0.5, 1, 3 and 6 mg/kg mg/kg (n=6 per group) for 24 h. The product was administered with a disposable Rodent Feeding Tube ECIMED Ref # V0104030 (4 mm×30 mm). The animals were sacrificed after 24 h, the brain was immediately removed for dissection. Levels of CTFα in the frontal cortex (FC) and/or the hippocampus (HIP) were measured by western-blot analysis as previously described. Briefly, tissues were homogenized with […], of lysis buffer (10 mL of Laemmli Pre-Lysis Buffer and 1 tablet of Protease Inhibitor cocktail Complete Mini (Roche)) in a potter. After sonication (5 min), homogenates were centrifuged at 1600 rpm 5 min 4° C. Supernatants were aliquoted and stored at −80° C. before western blot analysis.

[9] = test system: APP metabolism; experiment: In vivo APP metabolism assay, chronic treatment 1-month; design: species or system Sprague Dawley rats; details: rats, 1 or 10 mg/kg/day in drinking water, one month
Description: as §1
Chronic Treatment: 1-Month
Rats were provided for one month with 1 or 10 mg/kg/day of the compound of example 2 dissolved in their drinking water. […] The animals were sacrificed after one month and levels of CTFα and CTFβ in the frontal cortex (FC) and/or the hippocampus (HIP) were measured by western-blot analysis as previously described. Dose dependent results are shown on FIGS. 22-a and 22-b. […] The frontal cortex is generally the first region of the brain to be affected by amyloid plaques formation in abnormal APP metabolism related diseases while the hippocampus, which is highly involved in memory and recollection processes, is latterly but severely affected. The sulphate salt of example 2 thus has very positive effect on APP metabolism in both the frontal cortex and the hippocampus and could is therefore of interest in the treatment of neurodegenerative diseases, in particular for both early and advanced stages of abnormal APP metabolism related diseases.

[10] = test system: Tau protein; experiment: Chronic treatment 3-months, Tau protein phosphorylation; format: in vivo, C57Bl6 female mice; details: mice, 0.5, 1 or 3 mg/kg in drinking water, brain tissues
Text: Chronic Treatment: 3-Months
(§2) Neuropathological disorders are also characterized by abnormal phosphorylation of Tau protein (AT100). Hyperphosphorylation of the tau protein (on specific sites) can result in the intracellular accumulation of neurofibrillary tangles (NFTs), involved in the pathogenesis of Alzheimer's disease and other tauopathies. One axis of the study was thus to study the effect of the sulphate salt of example 2 on this abnormal phosphorylation. In parallel, such effect was also monitored with regards to the non-pathological phosphorylation of Tau protein (AT8) which should remain unaffected. Another axis of this study was thus the impact of the sulphate salt of example 2 on oxidative stress (OS). Therefore, levels of lipidic peroxidation, a well known marker for the evaluation of oxidative stress, were determined. Indeed, oxidative stress (OS), by the generation of toxic reactive oxygen species (ROS) and oxidative damage (oxidation of vital cellular components as lipids, proteins and DNA), is believed to be involved in the pathogenesis of neurodegenerative disorders. […]
4-month old C57Bl6 female mice were provided with 0.5, 1 or 3 mg/kg of compound of example 2 dissolved in their drinking water. […] Volume consumed was calculated by weighing each bottle after each week and the remaining volume was discarded. […]

[11] = test system: lipid peroxidation; experiment: Chronic treatment 3-months, LPO levels (modified FOX assay); format: in vivo, C57Bl6 female mice; details: mice, 0.5, 1 or 3 mg/kg in drinking water, hippocampi
Text: as §2, with “determined.” for “determined. Indeed, oxidative stress (OS), by the generation of toxic reactive oxygen species (ROS) and oxidative damage (oxidation of vital cellular components as lipids, proteins and DNA), is believed to be involved in the pathogenesis of neurodegenerative disorders.”
4-month old C57Bl6 female mice were provided with 0.5, 1 or 3 mg/kg of compound of example 2 dissolved in their drinking water. […] Volume consumed was calculated by weighing each bottle after each week and the remaining volume was discarded.
LPO levels measurements: the level of lipid peroxidation in hippocampi is determined as cumene hydroperoxide (CHP) equivalents and expressed as CHP equivalents per wet weight of tissue and as percentage of control group data following the modified FOX assay.

[12] = Dynamic vapour sorption (DVS) with water; format: physicochemical
Description: Dynamic vapour sorption (DVS) analyses with water were performed on a DVS-Intrisic incubator from SMS Ltd, equipped with DVS-Intrisic Control Software 1.0.
A sample of about 5 to 10 mg, placed in an aluminium pan holder, was submitted to a full-cycle analysis (sorption followed by desorption) under the conditions described in Table 3.
The sample was pre-dried under a stream of dry filtered air until a stable mass was obtained. Relative humidity was then increased by 5% increments. At each step, the sample was allowed to increase until equilibrium is reached (dm/dt criterion), then relative humidity was increased further. Relative humidity was ramped up to 95%. After equilibration at this stage, desorption is started in a similar stepwise manner, with a sample weight allowed to stabilize after each incremental humidity decrease step.
DVS analysis was carried out according to the method described above.

Molecule: CC(C)CN(CCCN1CCN(CCCNc2nc3ccccc3[nH]2)CC1)CC(C)C.O=C(O)C(=O)O.O=C(O)C(=O)O.O=C(O)C(=O)O.O=C(O)C(=O)O [4 eq oxalate salt, N-(3-(4-(3-(diisobutylamino)propyl)piperazin-1-yl)propyl)-1H-benzo[d]imidazol-2-amine, 4 eq oxalate salt, reference compound]
crystalline phase by DSC [1]: most well shaped and defined endotherm | crystallinity by XRPD [2]: little or poor crystallinity

Physical form ([3]; Acid eq. added 1): No solid formed, oily residue | Physical form ([3]; Acid eq. added 2): No solid formed, oily residue
Molecule: CC(=O)O [Acetate]

hygroscopicity [4]: very hygroscopic
Molecule: Cl [Chloride]

Molecule: CC(C)CN(CCCN1CCN(CCCNc2nc3ccccc3[nH]2)CC1)CC(C)C [Example 1, N-(3-(4-(3-(diisobutylamino)propyl)piperazin-1-yl)propyl)-1H-benzo[d]imidazol-2-amine, 2.9 eq sulphate salt]
crystallinity by XRPD ([2]; sulphate salt): well good crystalline phase

Molecule: CC(C)CN(CCCN1CCN(CCCNc2nc3ccccc3[nH]2)CC1)CC(C)C [Example 2, N-(3-(4-(3-(diisobutylamino)propyl)piperazin-1-yl)propyl)-1H-benzo[d]imidazol-2-amine, 1.8 eq sulphate salt]
water solubility [5]: remarkable high solubility | Aβ1-42 levels [6]: decreased level | sAPPα levels [6]: dose dependent increased levels | AICD levels ([6]; western-blot): dose dependent increased levels | CTFα levels ([6]; western-blot): dose dependent increased levels | CC50 [7]: > 30 µM | CTFα levels in the frontal cortex, comparison to the oxalate salt of WO2006/051489 ([8]; mice, 6 mg/kg per os): superior efficiency | CTFα levels in the frontal cortex ([8]; mice, 0.25, 0.5, 1, 3 and 6 mg/kg per os): increasing concentrations | CTFα levels in the frontal cortex [9]: increasing concentrations | CTFβ levels in the hippocampus [9]: decreasing concentrations | AT8 levels (normal Tau protein phosphorylation) [10]: not affecting | AT100 levels (pathological Tau protein phosphorylation) [10]: decreases | LPO levels [11]: significant decrease

Molecule: CC(C)CN(CCCN1CCN(CCCNc2nc3ccccc3[nH]2)CC1)CC(C)C.O=S(=O)(O)O [Example 3, N-(3-(4-(3-(diisobutylamino)propyl)piperazin-1-yl)propyl)-1H-benzo[d]imidazol-2-amine, 1 eq sulphate salt]
crystallinity by XRPD [2]: good crystallinity | mass lost upon drying ([12]; 25° C./0% RH): 0.18% | remaining amount of water upon desorption ([12]; 25° C./0% RH): 4.6% | hygroscopicity (criterion: more than 2% by weight water uptake) ([12]; 25° C./60% RH): not hygroscopic | water uptake upon sorption ([12]; 25° C./60% RH, compared to sample mass after initial drying at 0% RH): 0.7% | residual water remaining upon desorption ([12]; 25° C./75% RH as printed, interval 95 to 90% RH): 10% | hysteresis (adsorbed water retained upon desorption) ([12]; 25° C./75% RH, interval 75 to 10% RH): up to 6.7% | water uptake upon sorption ([12]; 25° C./80% RH, compared to sample mass after initial drying at 0% RH): 1.5% | water uptake upon sorption ([12]; 25° C./90% RH, compared to sample mass after initial drying at 0% RH): 9.7% | water vapour uptake upon sorption ([12]; 25° C./95% RH, compared to sample mass after initial drying at 0% RH): 19.4%

Molecule: CC(C)CN(CCCN1CCN(CCCNc2nc3ccccc3[nH]2)CC1)CC(C)C [Example 4, N-(3-(4-(3-(diisobutylamino)propyl)piperazin-1-yl)propyl)-1H-benzo[d]imidazol-2-amine, 2 eq sulphate salt]
crystallinity by XRPD [2]: good crystallinity

Molecule: CC(C)CN(CCCN1CCN(CCCNc2nc3ccccc3[nH]2)CC1)CC(C)C.O.O.O=S(=O)(O)O [di-hydrated form of example 3, di-hydrated form of N-(3-(4-(3-(diisobutylamino)propyl)piperazin-1-yl)propyl)-1H-benzo[d]imidazol-2-amine, 1 eq sulphate salt]
stability and hygroscopicity in second DVS cycle ([12]; 25° C., second sorption/desorption cycle): stable and non hygroscopic | water uptake for the di-hydrated form, experimentally determined ([12]; DVS 25° C.): 6.7% | theoretical water uptake for the di-hydrated form ([12]; calculated): 6.8%

Physical form ([3]; Acid eq. added 1): Not crystalline^2 | crystalline phase by DSC [1]: not crystalline
Molecule: Fumarate

Physical form ([3]; Acid eq. added 1): Powder
Molecule: Malate

Physical form ([3]; Acid eq. added 2): Gum | Physical form ([3]; Acid eq. added 3): Gum | Physical form ([3]; Acid eq. added 4): Crystalline powder
Molecule: Oxalate

Physical form ([3]; Acid eq. added 1): Crystalline powder (colorless | Physical form ([3]; Acid eq. added 2): Crystalline powder (colorless
Molecule: Sulphate

Physical form ([3]; Acid eq. added 1): Not crystalline^2 | crystalline phase by DSC [1]: not crystalline
Molecule: Tartrate

Reference: US10772884B2, “Sulphate salts of N-(3-(4-(3-(diisobutylamino)propyl)piperazin-1-yl)propyl)-1H-benzo[d]imidazol-2-amine, preparation thereof and use of the same” (ALZPROTECT, priority 2012, dated 2020)
